Results published in patent US12110299B2, “Thiazole derivatives and pharmaceutically acceptable salts thereof” (YUNGJIN PHARM. CO., LTD., priority 2018, dated 2024).

How the values were obtained:
MDA-MB-468 cells [1] = assay: Anti-proliferative effect on MDA-MB-468 cells, inhibition rate at 100 nM (tetrazolium salt method); assay type: cell-based; conditions: Homo sapiens, 72 hours
Protocol: Representative compounds of the present invention were tested at different concentrations (from 1000 nM to 25 nM) to assess their ability to inhibit the proliferation of MDA-MB-468 cells. Cells were grown in RPMI 1640 (Welgene)+10% FBS (Gibco)+1% penicillin/streptomycin (Gibco) and cultured at 37° C. in a humidified chamber in the presence of 5% CO2.
MDA-MB-468 cells cultured in 96-well cell culture plates were treated with representative compounds of the present invention and cultured for 72 hours.

MDA-MB-468 cells [2] = assay: Anti-proliferative effect on MDA-MB-468 cells, IC50 (MTT); assay type: cell-based; conditions: Homo sapiens, MDA-MB-468, 72 h
Protocol: The compounds of the present invention were tested at different concentrations (from 1000 nM to 1 nM) to assess their ability for inhibiting the proliferation of MDAMB-468 cells. Cells were cultivated in RPMI 1640 (Welgene)+10% FBS (Gibco)+1% penicillin/streptomycin (Gibco) and cultured at 37° C. in a humidified chamber in the presence of 5% C02.
MDA-MB-468 cells cultured in 96-well cell culture plates were treated with the compounds of the present invention and incubated for 72 hours.

HepG2 cells = assay: HepG2 cell viability assay (CCK-8); assay type: cell-based, human; conditions: Homo sapiens, HepG2, 72 h
Protocol: The ability to inhibit the proliferation of HepG2 cells, which are human hepatocellular carcinoma cells, was measured through the in vitro cell viability assay. Cells were cultured at 37° C. in a humidified condition in the presence of 5% CO2 using a culture medium of MEM (Welgene)+10% FBS (Gibco)+1% penicillin/streptomycin (Gibco). […] Cell viability was measured by CCK-8 method using tetrazolium salt, and the ability of the compounds according to the present invention to inhibit cancer cell proliferation was calculated.

[3] = target: recombinant purified human CDK7 kinase (Homo sapiens (Human), UniProt P50613); assay: CDK7 kinase-inhibitory activity, ADP-Glo kinase assay; assay type: biochemical; conditions: ATP 90 µM, MBP substrate, 2 hours at 30° C., read-out: CDK7 inhibition(IC50 nM)
Protocol: Representative compounds of the present invention were assayed in vitro for CDK7 kinase-inhibitory activities using ADP-Glo platform. In detail, CDK7 kinase-inhibitory activity was measured using recombinant purified human CDK7 kinase (ThermoFisher, PV3868) and ADP Glo kinase assays kit (Promega, V9102). CDK7 kinase was diluted with 1× kinase reaction buffer (40 mM Tris-C1, pH 7.5, 20 mM MgCl2, 0.1 mg/ml BSA and 50 [M DTT) and added to 96 well plates (final concentration of CDK7 per reaction: 50 ng). The compound was finally treated to be a 1% DMSO aqueous solution, and a substrate cocktail containing ATP (final concentration of 90 [M) and 0.2 μg/μl of MBP (Myelin basic protein) in a total of 25 μl of reaction mass was added to 96 well plates, thereby initiating an enzymatic reaction. After 2 hours of incubation (30° C.), equivalent volume (25 μl per reaction) of ADP Glo was added and incubated (30° C.) at room temperature for 60 minutes. The kinase detection reagent (50 μl per reaction) was then added and incubated (30° C.) at room temperature for 30 minutes. The kinase activity was measured by chemiluminescence method according to ADP Glo Kanease Assay Kit instruction manual, and the CDK7-inhibitory activity of the compounds according to the present invention was calculated. The result analysis of each compound was performed using Microsoft Excel, and IC50 values were calculated by Prism software.

recombinant purified human CDK7 kinase, sequence (P50613 whole entry): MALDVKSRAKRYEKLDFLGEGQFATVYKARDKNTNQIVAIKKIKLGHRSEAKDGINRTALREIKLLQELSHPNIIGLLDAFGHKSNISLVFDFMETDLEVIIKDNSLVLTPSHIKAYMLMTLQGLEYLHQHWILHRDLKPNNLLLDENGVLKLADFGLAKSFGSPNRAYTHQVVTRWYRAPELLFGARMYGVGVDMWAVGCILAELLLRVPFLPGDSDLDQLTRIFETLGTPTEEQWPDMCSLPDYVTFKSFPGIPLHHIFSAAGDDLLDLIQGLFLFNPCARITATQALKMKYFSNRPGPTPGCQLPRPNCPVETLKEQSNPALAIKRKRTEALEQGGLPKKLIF
recombinant purified human CDK7 kinase, sequence (P51946 whole entry partner): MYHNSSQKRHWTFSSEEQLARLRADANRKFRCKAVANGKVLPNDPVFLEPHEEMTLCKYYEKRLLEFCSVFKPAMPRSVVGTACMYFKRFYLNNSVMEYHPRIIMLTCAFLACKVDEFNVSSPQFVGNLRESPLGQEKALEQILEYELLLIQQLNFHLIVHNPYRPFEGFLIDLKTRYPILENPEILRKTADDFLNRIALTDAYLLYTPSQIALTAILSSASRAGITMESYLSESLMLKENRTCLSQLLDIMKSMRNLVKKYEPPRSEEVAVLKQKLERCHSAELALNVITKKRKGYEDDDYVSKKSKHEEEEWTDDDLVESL
recombinant purified human CDK7 kinase, sequence (P51948 whole entry partner): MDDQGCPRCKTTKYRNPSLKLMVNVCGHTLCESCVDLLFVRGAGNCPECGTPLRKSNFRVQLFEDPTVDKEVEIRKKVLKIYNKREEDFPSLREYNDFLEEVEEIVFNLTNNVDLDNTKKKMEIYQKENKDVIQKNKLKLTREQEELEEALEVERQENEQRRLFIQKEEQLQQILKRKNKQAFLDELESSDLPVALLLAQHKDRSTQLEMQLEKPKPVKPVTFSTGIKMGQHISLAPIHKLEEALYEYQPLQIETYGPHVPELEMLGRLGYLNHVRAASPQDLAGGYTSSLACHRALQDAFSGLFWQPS

Compound: C=CC(=O)Nc1ccc(-c2cccc(C(C)C(=O)Nc3ncc(C)s3)c2)cn1 (stereo not drawn) [Example 1, N-(5-(3-(1-((5-methylthiazol-2-yl)amino)-1-oxopropan-2-yl)phenyl)pyridin-2-yl)acrylamide]
- inhibition at 0.1 µM (MDA-MB-468 cells [1]): 54%

Compound: C=CC(=O)Nc1ccc(-c2cccc(C(C)C(=O)Nc3ncc(C4CC4)s3)c2)cn1 (stereo not drawn) [Example 2, N-(5-(3-(1-((5-cyclopropylthiazol-2-yl)amino)-1-oxopropan-2-yl)phenyl)pyridin-2-yl)acrylamide]
- inhibition at 0.1 µM (MDA-MB-468 cells [1]): 50%
- IC50 (MDA-MB-468 cells [2]): 104 nM
- IC50 (HepG2 cells): 15 nM

Compound: C=CC(=O)Nc1ccc(-c2cccc(C(C)C(=O)Nc3ncc(CC)s3)c2)cn1 (stereo not drawn) [Example 4, N-(5-(3-(1-((5-ethylthiazol-2-yl)amino)-1-oxopropan-2-yl)phenyl)pyridin-2-yl)acrylamide]
- inhibition at 0.1 µM (MDA-MB-468 cells [1]): 56%

Compound: CC(C(=O)Nc1ncc(C2CC2)s1)c1cccc(-c2ccc(NC(=O)/C=C/CN(C)C)nc2)c1 (stereo not drawn) [Example 6, (E)-N-(5-(3-(1-((5-cyclopropylthiazol-2-yl)amino)-1-oxopropan-2-yl)phenyl)pyridin-2-yl)-4-(dimethylamino)but-2-enamide]
- inhibition at 0.1 µM (MDA-MB-468 cells [1]): 66%
- IC50 (MDA-MB-468 cells [2]): 86 nM
- IC50 (HepG2 cells): 22 nM

Compound: C=CC(=O)Nc1ccc(-c2ccc(F)c(C(C)C(=O)Nc3ncc(C#N)s3)c2)nn1 (stereo not drawn) [Example 11, N-(6-(3-(1-((5-cyanothiazol-2-yl)amino)-1-oxopropane-2-yl)-4-fluorophenyl)pyridazin-3-yl)acrylamide]
- inhibition at 0.1 µM (MDA-MB-468 cells [1]): 53%

Compound: C=CC(=O)Nc1ccc(-c2cccc([C@H](C)C(=O)Nc3ncc(C4CC4)s3)c2)cn1 [Example 14]
- inhibition at 0.1 µM (MDA-MB-468 cells [1]): 74%
- IC50 (MDA-MB-468 cells [2]): 63 nM
- IC50 (HepG2 cells): 5 nM

Compound: C[C@H](C(=O)Nc1ncc(C2CC2)s1)c1cccc(-c2ccc(NC(=O)/C=C/CN(C)C)nc2)c1 [Example 15]
- inhibition at 0.1 µM (MDA-MB-468 cells [1]): 73%
- IC50 (MDA-MB-468 cells [2]): 46 nM

Compound: C=CC(=O)Nc1cncc(-c2cccc([C@H](C)C(=O)Nc3ncc(C4CC4)s3)c2)n1 [Example 16]
- inhibition at 0.1 µM (MDA-MB-468 cells [1]): 53%

Compound: CCc1cnc(NC(=O)[C@@H](C)c2cccc(-c3ccc(NC(=O)/C=C/CN(C)C)nc3)c2)s1 [Example 17, (S,E)-4-(dimethylamino)-N-(5-(3-(1-((5-ethylthiazol-2-yl)amino)-1-oxopropan-2-yl)phenyl)pyridin-2-yl)but-2-enamide]
- inhibition at 0.1 µM (MDA-MB-468 cells [1]): 70%
- IC50 (MDA-MB-468 cells [2]): 26 nM

Compound: C=CC(=O)Nc1cnc(-c2cccc([C@H](C)C(=O)Nc3ncc(C4CC4)s3)c2)cn1 [Example 22]
- inhibition at 0.1 µM (MDA-MB-468 cells [1]): 72%

Compound: C=CC(=O)Nc1cnc(-c2cccc([C@H](C)C(=O)Nc3ncc(C#N)s3)c2)cn1 [Example 25, (S)-N-(5-(3-(1-((5-cyanothiazol-2-yl)amino)-1-oxopropan-2-yl)phenyl)pyrazin-2-yl)acrylamide]
- inhibition at 0.1 µM (MDA-MB-468 cells [1]): 71%

Compound: C=CC(=O)Nc1ncc(-c2cccc([C@H](C)C(=O)Nc3ncc(C4CC4)s3)c2)cn1 [Example 27]
- inhibition at 0.1 µM (MDA-MB-468 cells [1]): 74%

Compound: C=CC(=O)Nc1ccc(-c2cccc([C@H](C)C(=O)Nc3ncc(C4CC4)s3)c2)nn1 [Example 28]
- inhibition at 0.1 µM (MDA-MB-468 cells [1]): 74%

Compound: C=CC(=O)Nc1ncc(-c2cccc([C@H](C)C(=O)Nc3ncc(C4CC4)s3)c2)cc1F [Example 29]
- inhibition at 0.1 µM (MDA-MB-468 cells [1]): 75%

Compound: C=CC(=O)Nc1ncc(-c2cccc([C@H](C)C(=O)Nc3ncc(C#N)s3)c2)cc1F [Example 33, (S)-N-(5-(3-(1-((5-cyanothiazol-2-yl)amino)-1-oxopropan-2-yl)phenyl)-3-fluoropyridin-2-yl)acrylamide]
- inhibition at 0.1 µM (MDA-MB-468 cells [1]): 59%

Compound: C=CC(=O)Nc1cnc(-c2cccc([C@H](C)C(=O)Nc3ncc(C(C)C)s3)c2)cn1 [Example 36, (S)-N-(5-(3-(1-((5-isopropylthiazol-2-yl)amino)-1-oxopropan-2-yl)phenyl)pyrazin-2-yl)acrylamide]
- inhibition at 0.1 µM (MDA-MB-468 cells [1]): 64%

Compound: C=CC(=O)Nc1ccc(-c2cccc([C@H](C)C(=O)Nc3ncc(C(F)(F)F)s3)c2)cn1 [Example 38, (S)-N-(5-(3-(1-oxo-1-((5-(trifluoromethyl)thiazol-2-yl)amino)propan-2-yl)phenyl)pyridin-2-yl)acrylamide]
- inhibition at 0.1 µM (MDA-MB-468 cells [1]): 64%

Compound: C=CC(=O)Nc1ccc(-c2cccc([C@H](C)C(=O)Nc3ncc(C(F)(F)F)s3)c2)nn1 [Example 39, (S)-N-(6-(3-(1-oxo-1-((5-(trifluoromethyl)thiazol-2-yl)amino)propan-2-yl)phenyl)pyridazin-3-yl)acrylamide]
- inhibition at 0.1 µM (MDA-MB-468 cells [1]): 67%

Compound: C=CC(=O)Nc1ccc(-c2cccc([C@H](C)C(=O)Nc3ncc(C(C)C)s3)c2)nn1 [Example 40, (S)-N-(6-(3-(1-((5-isopropylthiazol-2-yl)amino)-1-oxopropan-2-yl)phenyl)pyridazin-3-yl)acrylamide]
- inhibition at 0.1 µM (MDA-MB-468 cells [1]): 64%

Compound: C=CC(=O)Nc1cnc(-c2cncc(C(C)C(=O)Nc3ncc(C(C)C)s3)c2)cn1 (stereo not drawn) [Example 47, N-(5-(5-(1-((5-isopropylthiazol-2-yl)amino)-1-oxopropan-2-yl)pyridin-3-yl)pyrazin-2-yl) acrylamide]
- inhibition at 0.1 µM (MDA-MB-468 cells [1]): 72%

Compound: C=CC(=O)Nc1ccc(-c2cncc(C(C)C(=O)Nc3ncc(C(F)(F)F)s3)c2)nn1 (stereo not drawn) [Example 49, N-(6-(5-(1-oxo-1-((5-(trifluoromethyl)thiazol-2-yl)amino)propan-2-yl)pyridin-3-yl)pyridazin-3-yl)acrylamide]
- inhibition at 0.1 µM (MDA-MB-468 cells [1]): 67%

Compound: C=CC(=O)Nc1ccc(-c2cc(C(C)C(=O)Nc3ncc(C4CC4)s3)ccn2)cn1 (stereo not drawn) [Example 50, N-(4-(1-((5-cyclopropylthiazol-2-yl)amino)-1-oxopropan-2-yl)-[2,3′-bipyridine]-6′-yl)acrylamide]
- inhibition at 0.1 µM (MDA-MB-468 cells [1]): 66%

Compound: C=CC(=O)Nc1ccc(-c2csc(C(C)C(=O)Nc3ncc(C(F)(F)F)s3)c2)cn1 (stereo not drawn) [Example 53, N-(5-(5-(1-oxo-1-((5-(trifluoromethyl)thiazol-2-yl)amino)propan-2-yl)thiophen-3-yl)pyridin-2-yl)acrylamide]
- inhibition at 0.1 µM (MDA-MB-468 cells [1]): 51%

Compound: C=CC(=O)Nc1cnc(-c2cncc(C(C)C(=O)Nc3ncc(Cl)s3)c2)cn1 (stereo not drawn) [Example 61, N-(5-(5-(1-((5-chlorothiazol-2-yl)amino)-1-oxopropan-2-yl)pyridin-3-yl)pyrazine-2-yl)acrylamide]
- inhibition at 0.1 µM (MDA-MB-468 cells [1]): 73%

Compound: C[C@H](C(=O)Nc1ncc(N(C)C)s1)c1cccc(-c2cnc(NC(=O)/C=C/CN(C)C)cn2)c1 [Example 106, (S,E)-4-(dimethylamino)-N-(5-(3-(1-((5-(dimethylamino)thiazol-2-yl)amino)-1-oxopropan-2-yl)phenyl)pyrazin-2-yl)but-2-enamide]
- IC50 [3]: 71 nM

Compound: CCc1cnc(NC(=O)[C@@H](C)c2cccc(-c3cnc4c(c3)CCN4C(=O)/C=C/CN(C)C)c2)s1 [Example 122, (S,E)-2-(3-(1-(4-(dimethylamino)but-2-enoyl)-2,3-dihydro-1H-pyrrolo[2,3-b]pyridin-5-yl)phenyl)-N-(5-ethylthiazol-2-yl)propanamide]
- IC50 (MDA-MB-468 cells [2]): 34 nM
- IC50 (HepG2 cells): 38 nM

Compound: CCc1cnc(NC(=O)[C@@H](C)c2cccc(-c3cnc(NC(=O)/C=C/CN4CC5CC4CO5)c(C#N)c3)c2)s1 (stereo partly drawn) [Example 123, (E)-4-(2-oxa-5-azabicyclo[2.2.1]heptan-5-yl)-N-(3-cyano-5-(3-((S)-1-((5-ethylthiazol-2-yl)amino)-1-oxopropan-2-yl)phenyl)pyridin-2-yl)but-2-enamide]
- IC50 (MDA-MB-468 cells [2]): 24 nM
- IC50 (HepG2 cells): 11 nM

Compound: CCc1cnc(NC(=O)[C@@H](C)c2cccc(-c3cnc(N(C)C(=O)/C=C/CN(C)C)c(C#N)c3)c2)s1 [Example 132, (S,E)-N-(3-cyano-5-(3-(1-((5-ethylthiazol-2-yl)amino)-1-oxopropan-2-yl)phenyl)pyridin-2-yl)-4-(dimethylamino)-N-methylbut-2-enamide]
- IC50 (MDA-MB-468 cells [2]): 32 nM
- IC50 (HepG2 cells): 9.5 nM

Compound: CCc1cnc(NC(=O)[C@@H](C)c2cccc(-c3cnc(NC(=O)/C=C/CN4CCOCC4)c(C#N)c3)c2)s1 [Example 135, (S,E)-N-(3-cyano-5-(3-(1-((5-ethylthiazol-2-yl)amino)-1-oxopropan-2-yl)phenyl)pyridin-2-yl)-4-morpholinobut-2-enamide]
- IC50 (MDA-MB-468 cells [2]): 48 nM
- IC50 (HepG2 cells): 10 nM

Compound: CCc1cnc(NC(=O)C(C)c2cncc(-c3cnc(NC(=O)/C=C/CN(C)C)c(C#N)c3)c2)s1 (stereo not drawn) [Example 137, (E)-N-(5-cyano-5′-(1-((5-ethylthiazol-2-yl)amino)-1-oxopropan-2-yl)-[3,3′-bipyridin]-6-yl)-4-(dimethylamino)but-2-enamide]
- IC50 (MDA-MB-468 cells [2]): 47 nM
- IC50 (HepG2 cells): 18 nM

Compound: CCc1cnc(NC(=O)C(CC)c2cccc(-c3cnc(NC(=O)/C=C/CN(C)C)c(C#N)c3)c2)s1 (stereo not drawn) [Example 138, (E)-N-(3-cyano-5-(3-(1-((5-ethylthiazol-2-yl)amino)-1-oxobutan-2-yl)phenyl)pyridin-2-yl)-4-(dimethylamino)but-2-enamide]
- IC50 (MDA-MB-468 cells [2]): 100 nM
- IC50 (HepG2 cells): 52 nM
